# From patent US12655125B2 (SIRONAX LTD., priority 2020, dated 2026)
# Tested on: HT-29 cells
# Assay: HT29 Cells 0FBS Assay In Vitro (TNF-α/SMAC mimetic/zVAD-FMK induced necroptosis, CellTiter-Glo cell viability)
# Type: cell-based
# Conditions: Homo sapiens; HT-29 cells, FBS free medium, TNF-α (10 ng/ml), SMAC mimetic (6 uM), zVAD-FMK (10 μM), 20 hours; geometric mean EC50; read-out: Cell activity (EC50) of Compounds 1-116
# From the text: Protocol for HT29 Cells 0FBS Assay In Vitro
# • Cell line: HT-29 (ATCC® HTB-38™) • Culture medium: McCOY's 5 A, Gibco, Cat No. 16600-082 • FBS, Gibco, Cat No. 10099-141C • Trypsin: Gibco, Cat No. 25200-056 • DMSO: Sigma, Cat No. 67-68-5, 1 L • Assay plate: Corning #3903 • Compound dilution plate: Corning #3357 • Inducers: TNFα, GenScript, Cat No. ZO1001-50, • SmacM, Cat. No., HY-15989, MedChemExpress (MCE) • Z_VAD FMK, TargetMol, T6013 • Cell Titer-Glo® Luminescent Cell Viability Assay Kit: Promega, Cat No. G7573 • EnVision: PerkinElmer, 2105-0010 2. Cell Seeding of HT-29 Cells • 1) HT-29 cells were checked every day to make sure they are healthy and growing as expected. They were split sub-culturing when were approximately 80% confluent. • 2) First pre-warm the culture medium of McCOY's 5 A medium (Gibco, Cat No. 16600-082) with 10% FBS (Gibco, Cat No. 10099-141C) in 37° C. water bath for at least 30 min. • 3) Growing cells to desired level of confluency 80% in a T75 flask, aspirate the medium, and wash with warm PBS two times. • 4) Add 2-3 ml fresh warm trypsin (Gibco, Cat No. 25200-056) solution. Transfer the flask to a 37° C. incubator. • 5) After 5 minutes, tap the side of the flask, and examine the flask under a microscope for lifting. If necessary, return the cells to the incubator for an additional 5-10 minutes, with occasional tapping, until lifting is complete. • 6) Quickly neutralize the trypsin reaction by adding 6-9 ml cell culture medium, then transfer the cells to sterile 15 ml conical tubes. Pellet the cells by centrifugation at 300×g for 7 minutes, then decant the supernatant. • 7) Resuspend the cells in fresh cell culture medium. Do cell counting with hemocytometer. • 8) Seed 100 μl of 5,000 cells into each well of the sterile 96-well cell culture plate (Corning 3903) and culture overnight at 37° C. with 5% C02. 3. Compounds Titration and Treatment of HT-29 Cells • 1) All batches of compounds (CPDs) (e.g., compound 1-281) were dissolved in DMSO (Dimethyl sulfoxide) as 20 mM stock solution. • 2) Take 3 ul 20 mM stock solution of CPDs to 27 ul DMSO and mix well, continue the titration ratio of 1:3 (20 ul CPDs+40 ul DMSO), e.g., to give solutions of CPDS at 6.6 mM, 2.2 mM, etc., till the 10 points end. • 3) Take out assay plates with HT-29 cells from incubator, remove all culture medium then wash 1 time with 1×PBS, and change fresh McCOY's 5 A medium of FBS free with a cocktail of TNF-α (10 ng/ml), the SMAC mimetic (6 uM) and zVAD-FMK (10 μM) to stimulate the HT-29 cells to increase pRIPK1 levels and necroptosis. • 4) Add 0.5 μL of the diluted compound to the corresponding 96-well assay plates. • 5) Incubate the assay plates for 20 hours at 37° C. with 5% C02. 4. Performing Cell Viability Detection of HT-29 Cells after Treated with Compounds • 1) The CellTiter-Glo® Luminescent Cell Viability Assay was employed to detect the ATP levels of viable HT-29 cells. • 2) Equilibrate the CellTiter-Glo® buffer and the lyophilized substrate to room temperature prior to use. • 3) Resuspend the CellTiter-Glo® substrate with CellTiter-Glo® buffer, mix by gently vortexing to obtain a homogeneous solution. • 4) Pipette 20 μl the enzyme/substrate mixture by multi-channel pipette into the 96-well assay plates from step 5) under the Compounds titration and treatment stage. • 5) Place the plates on an orbital shaker and mix the contents for 3 minutes to induce cell lysis. • 6) Then allow the plates to incubate at room temperature for 10 minutes to stabilize luminescent signal. • 7) Read and record luminescence signal with EnVision. • 8) The geometric mean EC50 of the compounds were calculated from points response dose with duplicate. In Tables 2 and 4, activity is provided as follows: +++=0.1 nM≤EC50<100 nM; ++=100 nM≤EC50<1000 nM; +=1000 nM≤EC50<10000 nM.
row,Compound,EC50
1,"Cn1nccc1-c1ccc(F)c(OC2CN(C(=O)N3N=CC[C@H]3c3cc(F)cc(F)c3)C2)n1 (stereo in doubt) [compound 1, (5-(3,5-difluorophenyl)-4,5-dihydro-1H-pyrazol-1-yl)(3-((3-fluoro-6-(1-methyl-1H-pyrazol-5-yl)pyridin-2-yl)oxy)azetidin-1-yl)methanone]",0.1 to 100 nM
2,"Cn1nccc1-c1ncc(F)c(OC2CN(C(=O)N3N=CC[C@H]3c3cc(F)cc(F)c3)C2)n1 [compound 2, (S)-(5-(3,5-difluorophenyl)-4,5-dihydro-1H-pyrazol-1-yl)(3-((5-fluoro-2-(1-methyl-1H-pyrazol-5-yl)pyrimidin-4-yl)oxy)azetidin-1-yl)methanone]",0.1 to 100 nM
3,"Cn1nccc1-c1cc(OC2CN(C(=O)N3N=CC[C@H]3c3cc(F)cc(F)c3)C2)c(F)cn1 [compound 3, (S)-(5-(3,5-difluorophenyl)-4,5-dihydro-1H-pyrazol-1-yl)(3-((5-fluoro-2-(1-methyl-1H-pyrazol-5-yl)pyridin-4-yl)oxy)azetidin-1-yl)methanone]",0.1 to 100 nM
4,"CCn1nccc1-c1cc(OC2CN(C(=O)N3N=CC[C@H]3c3cc(F)cc(F)c3)C2)c(F)cn1 [compound 4, (S)-(5-(3,5-difluorophenyl)-4,5-dihydro-1H-pyrazol-1-yl)(3-((2-(1-ethyl-1H-pyrazol-5-yl)-5-fluoropyridin-4-yl)oxy)azetidin-1-yl)methanone]",0.1 to 100 nM
5,"Cn1ccnc1-c1ccc(F)c(OC2CN(C(=O)N3N=CC[C@H]3c3cc(F)cc(F)c3)C2)n1 [compound 5, (S)-(5-(3,5-difluorophenyl)-4,5-dihydro-1H-pyrazol-1-yl)(3-((3-fluoro-6-(1-methyl-1H-imidazol-2-yl)pyridin-2-yl)oxy)azetidin-1-yl)methanone]",0.1 to 100 nM
6,"Cn1cncc1-c1ccc(F)c(OC2CN(C(=O)N3N=CC[C@H]3c3cc(F)cc(F)c3)C2)n1 [compound 6, (S)-(5-(3,5-difluorophenyl)-4,5-dihydro-1H-pyrazol-1-yl)(3-((3-fluoro-6-(1-methyl-1H-imidazol-5-yl)pyridin-2-yl)oxy)azetidin-1-yl)methanone]",0.1 to 100 nM
7,"Cn1cncc1-c1cc(OC2CN(C(=O)N3N=CC[C@H]3c3cc(F)cc(F)c3)C2)c(F)cn1 [compound 7, (S)-(5-(3,5-difluorophenyl)-4,5-dihydro-1H-pyrazol-1-yl)(3-((5-fluoro-2-(1-methyl-1H-imidazol-5-yl)pyridin-4-yl)oxy)azetidin-1-yl)methanone]",0.1 to 100 nM
8,"Cn1cncc1-c1ncc(F)c(OC2CN(C(=O)N3N=CC[C@H]3c3cc(F)cc(F)c3)C2)n1 [compound 8, (S)-(5-(3,5-difluorophenyl)-4,5-dihydro-1H-pyrazol-1-yl)(3-((5-fluoro-2-(1-methyl-1H-imidazol-5-yl)pyrimidin-4-yl)oxy)azetidin-1-yl)methanone]",0.1 to 100 nM
9,"Cc1ncsc1-c1ncc(F)c(OC2CN(C(=O)N3N=CC[C@H]3c3cc(F)cc(F)c3)C2)n1 [compound 9, (S)-(5-(3,5-difluorophenyl)-4,5-dihydro-1H-pyrazol-1-yl)(3-((5-fluoro-2-(4-methylthiazol-5-yl)pyrimidin-4-yl)oxy)azetidin-1-yl)methanone]",0.1 to 100 nM
10,"Cc1ncsc1-c1ccc(F)c(OC2CN(C(=O)N3N=CC[C@H]3c3cc(F)cc(F)c3)C2)n1 [compound 10, (S)-(5-(3,5-difluorophenyl)-4,5-dihydro-1H-pyrazol-1-yl)(3-((3-fluoro-6-(4-methylthiazol-5-yl)pyridin-2-yl)oxy)azetidin-1-yl)methanone]",0.1 to 100 nM
11,"Cc1ncsc1-c1cc(OC2CN(C(=O)N3N=CC[C@H]3c3cc(F)cc(F)c3)C2)c(F)cn1 [compound 11, (S)-(5-(3,5-difluorophenyl)-4,5-dihydro-1H-pyrazol-1-yl)(3-((5-fluoro-2-(4-methylthiazol-5-yl)pyridin-4-yl)oxy)azetidin-1-yl)methanone]",0.1 to 100 nM
12,"Cc1scnc1-c1ncc(F)c(OC2CN(C(=O)N3N=CC[C@H]3c3cc(F)cc(F)c3)C2)n1 [compound 12, (S)-(5-(3,5-difluorophenyl)-4,5-dihydro-1H-pyrazol-1-yl)(3-((5-fluoro-2-(5-methylthiazol-4-yl)pyrimidin-4-yl)oxy)azetidin-1-yl)methanone]",0.1 to 100 nM
13,"Cc1scnc1-c1ccc(F)c(OC2CN(C(=O)N3N=CC[C@H]3c3cc(F)cc(F)c3)C2)n1 [compound 13, (S)-(5-(3,5-difluorophenyl)-4,5-dihydro-1H-pyrazol-1-yl)(3-((3-fluoro-6-(5-methylthiazol-4-yl)pyridin-2-yl)oxy)azetidin-1-yl)methanone]",0.1 to 100 nM
14,"Cc1scnc1-c1cc(OC2CN(C(=O)N3N=CC[C@H]3c3cc(F)cc(F)c3)C2)c(F)cn1 [compound 14, (S)-(5-(3,5-difluorophenyl)-4,5-dihydro-1H-pyrazol-1-yl)(3-((5-fluoro-2-(5-methylthiazol-4-yl)pyridin-4-yl)oxy)azetidin-1-yl)methanone]",0.1 to 100 nM
15,"Cc1nscc1-c1ncc(F)c(OC2CN(C(=O)N3N=CC[C@H]3c3cc(F)cc(F)c3)C2)n1 [compound 15, (S)-(5-(3,5-difluorophenyl)-4,5-dihydro-1H-pyrazol-1-yl)(3-((5-fluoro-2-(3-methylisothiazol-4-yl)pyrimidin-4-yl)oxy)azetidin-1-yl)methanone]",0.1 to 100 nM
16,"Cc1nscc1-c1ccc(F)c(OC2CN(C(=O)N3N=CC[C@H]3c3cc(F)cc(F)c3)C2)n1 [compound 16, (S)-(5-(3,5-difluorophenyl)-4,5-dihydro-1H-pyrazol-1-yl)(3-((3-fluoro-6-(3-methylisothiazol-4-yl)pyridin-2-yl)oxy)azetidin-1-yl)methanone]",0.1 to 100 nM
17,"Cc1nscc1-c1cc(OC2CN(C(=O)N3N=CC[C@H]3c3cc(F)cc(F)c3)C2)c(F)cn1 [compound 17, (S)-(5-(3,5-difluorophenyl)-4,5-dihydro-1H-pyrazol-1-yl)(3-((5-fluoro-2-(3-methylisothiazol-4-yl)pyridin-4-yl)oxy)azetidin-1-yl)methanone]",0.1 to 100 nM
18,"Cc1csnc1-c1ncc(F)c(OC2CN(C(=O)N3N=CC[C@H]3c3cc(F)cc(F)c3)C2)n1 [compound 18, (S)-(5-(3,5-difluorophenyl)-4,5-dihydro-1H-pyrazol-1-yl)(3-((5-fluoro-2-(4-methylisothiazol-3-yl)pyrimidin-4-yl)oxy)azetidin-1-yl)methanone]",0.1 to 100 nM

# Same assay, conditions: Homo sapiens; HT-29 cells, FBS free medium, TNF-α (10 ng/ml), SMAC mimetic (6 uM), zVAD-FMK (10 μM), 20 hours; geometric mean EC50; read-out: Cell activity (EC50) of Compounds 117-281
row,Compound,EC50
1,"Cc1c([S+](C)[O-])nn(C)c1-c1cc(OC2CN(C(=O)N3N=CC[C@H]3c3cc(F)cc(F)c3)C2)c(F)cn1 (stereo in doubt) [compound 178, (5-(3,5-difluorophenyl)-4,5-dihydro-1H-pyrazol-1-yl)(3-((2-(1,4-dimethyl-3-(methylsulfinyl)-1H-pyrazol-5-yl)-5-fluoropyridin-4-yl)oxy)azetidin-1-yl)methanone]",0.1 to 100 nM
